Measured values from patent US9029370B2, “Substituted benzamide derivatives” (Hoffmann-La Roche Inc., priority 2011, dated 2015).
Where a name gives a salt, the structure may show the parent alone.

Columns and labels:
mouse TAAR1 = mouse TAAR1 (Mus musculus (Mouse), UniProt Q923Y8); assay: Radioligand binding assay on mouse TAAR1; details: mouse TAAR1, HEK-293 membranes; first value of the pair (before the slash); read-out: Ki (μM) mouse/rat
Description: (§1) For the construction of expression plasmids the coding sequences of human, rat and mouse TAAR 1 were amplified from genomic DNA essentially as described by Lindemann et al.. The Expand High Fidelity PCR System (Roche Diagnostics) was used with 1.5 mM Mg^2+ and purified PCR products were cloned into pCR2.1-TOPO cloning vector (Invitrogen) following the instructions of the manufacturer. PCR products were subcloned into the pIRESneo2 vector (BD Clontech, Palo Alto, Calif.), and expression vectors were sequence verified before introduction in cell lines.
(§2) HEK293 cells (ATCC # CRL-1573) were cultured essentially as described by Lindemann et al. (2005). For the generation of stably transfected cell lines HEK293 cells were transfected with the pIRESneo2 expression plasmids containing the TAAR coding sequences (described above) with Lipofectamine 2000 (Invitrogen) according to the instructions of the manufacturer, and 24 hrs post transfection the culture medium was supplemented with 1 mg/ml G418 (Sigma, Buchs, Switzerland). After a culture period of about 10 d clones were isolated, expanded and tested for responsiveness to trace amines (all compounds purchased from Sigma) with the cAMP Biotrak Enzyme immunoassay (EIA) System (Amersham) following the non-acetylation EIA procedure provided by the manufacturer.
Radioligand Binding Assay on Mouse TAAR1
(§3) Membrane Preparation and Radioligand Binding.
(§4) HEK-293 cells stably expressing mouse TAAR1 were maintained at 37° C. and 5% CO2 in DMEM high glucose medium, containing fetal calf serum (10%, heat inactivated for 30 min at 56° C.), penicillin/streptomycin (1%), and 375 μg/ml geneticin (Gibco). Cells were released from culture flasks using trypsin/EDTA, harvested, washed twice with ice-cold PBS (without Ca^2+ and Mg^2+), pelleted at 1′000 rpm for 5 min at 4° C., frozen and stored at −80° C. […] The homogenate was centrifuged at 48′000×g for 30 min at 4° C. Subsequently, the supernatant was removed and discarded, and the pellet resuspended in 20 ml HEPES-NaOH (20 mM, pH 7.4) containing 0.1 mM EDTA using the Polytron (20 s at 14′000 rpm). This procedure was repeated and the final pellet resuspended in HEPES-NaOH containing 0.1 mM EDTA and homogenized using the Polytron. Typically, aliquots of 2 ml membrane portions were stored at −80° C. With each new membrane batch the dissociation constant (Kd) was determined via a saturation curve. […] Nonspecific binding was defined as the amount of ^3[H]-(S)-4-[(ethyl-phenyl-amino)-methyl]-4,5-dihydro-oxazol-2-ylamine bound in the presence of 10 μM unlabeled ligand. All compounds were tested at a broad range of concentrations (10 pM to 10 μM) in duplicates. […] The 96 deep well plates were incubated for 1 hr at 4° C. Incubations were terminated by rapid filtration through Unifilter-96 plates (Packard Instrument Company) and glass filters GF/C (Perkin Elmer) presoaked for 1 hr in polyethylenimine (0.3%) and washed 3 times with 1 ml of cold binding buffer. After addition of 45 μl of Microscint 40 (PerkinElmer) the Unifilter-96 plate was sealed and after 1 hr the ratioactivity counted using a TopCount Microplate Scintillation Counter (Packard Instrument Company).

rat TAAR1 = rat TAAR1 (Rattus norvegicus (Rat), UniProt Q923Y9); assay: Radioligand binding assay on rat TAAR1; details: rat TAAR1, HEK-293 membranes; second value of the pair (line below); read-out: Ki (μM) mouse/rat
rat TAAR1, sequence (Q923Y9 whole entry): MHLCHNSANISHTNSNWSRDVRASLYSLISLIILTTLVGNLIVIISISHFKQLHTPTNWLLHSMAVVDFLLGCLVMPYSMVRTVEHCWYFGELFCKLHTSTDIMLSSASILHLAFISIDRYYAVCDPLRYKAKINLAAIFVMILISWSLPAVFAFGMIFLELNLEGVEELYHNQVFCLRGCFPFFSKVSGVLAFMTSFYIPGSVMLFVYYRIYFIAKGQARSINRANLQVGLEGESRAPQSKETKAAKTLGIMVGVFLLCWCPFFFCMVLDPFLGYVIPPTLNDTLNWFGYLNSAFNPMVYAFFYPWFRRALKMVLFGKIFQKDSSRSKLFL
Description: as §1, §2
Radioligand Binding Assay on Rat TAAR1
as §3
as §4, with “rat” for “mouse”

mouse TAAR1, sequence (Q923Y8 whole entry): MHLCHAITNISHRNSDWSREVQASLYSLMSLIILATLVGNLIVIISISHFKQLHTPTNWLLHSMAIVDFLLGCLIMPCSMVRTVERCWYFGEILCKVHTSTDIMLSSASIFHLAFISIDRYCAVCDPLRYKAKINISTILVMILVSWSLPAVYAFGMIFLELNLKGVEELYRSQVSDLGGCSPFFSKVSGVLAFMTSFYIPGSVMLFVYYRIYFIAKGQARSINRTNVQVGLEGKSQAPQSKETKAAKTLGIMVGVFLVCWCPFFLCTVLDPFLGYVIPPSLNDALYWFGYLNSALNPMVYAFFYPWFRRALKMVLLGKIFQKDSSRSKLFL

SMILES	Ki (mouse TAAR1) [µM]	Ki (rat TAAR1) [µM]
N#Cc1cc(NC(=O)Nc2ccc([C@@H]3CNCCO3)cc2F)ccc1F [Example 63, (R)-1-(3-Cyano-4-fluorophenyl)-3-(2-fluoro-4-(morpholin-2-yl)phenyl)urea]	0.0014	0.0007
O=C(Nc1ccc(Cl)cn1)Nc1ccc([C@H]2CNCCO2)cc1Cl [Example 64, (S)-1-(2-Chloro-4-(morpholin-2-yl)phenyl)-3-(5-chloropyridin-2-yl)urea]	0.0015	0.003
N#Cc1ccc(NC(=O)Nc2ccc([C@@H]3CNCCO3)cc2Br)cn1 [Example 65, (R)-1-(2-bromo-4-(morpholin-2-yl)phenyl)-3-(6-cyanopyridin-3-yl)urea]	0.0037	0.0218
N#Cc1ccc(NC(=O)Nc2ccc([C@H]3CNCCO3)cc2Br)cn1 [Example 66, (S)-1-(2-bromo-4-(morpholin-2-yl)phenyl)-3-(6-cyanopyridin-3-yl)urea]	0.0033	0.0161
O=C(Nc1cnc(C(F)(F)F)nc1)Nc1ccc([C@H]2CNCCO2)cc1Br [Example 69, 1-((S)-2-Bromo-4-morpholin-2-yl-phenyl)-3-(2-trifluoromethyl-pyrimidin-5-yl)-urea]	0.0086	0.018
O=C(Nc1cnc(C(F)(F)F)nc1)Nc1ccc([C@@H]2CNCCO2)cc1Br [Example 70, 1-((R)-2-Bromo-4-morpholin-2-yl-phenyl)-3-(2-trifluoromethyl-pyrimidin-5-yl)-urea]	0.0056	0.0103
N#Cc1ccc(OC(F)F)c(NC(=O)Nc2ccc([C@H]3CNCCO3)cc2F)c1 [Example 71, 1-(5-Cyano-2-difluoromethoxy-phenyl)-3-((S)-2-fluoro-4-morpholin-2-yl-phenyl)-urea hydrochloride]	0.0018	0.0012
N#Cc1ccc(OC(F)F)c(NC(=O)Nc2ccc([C@@H]3CNCCO3)cc2F)c1 [Example 72, 1-(5-Cyano-2-difluoromethoxy-phenyl)-3-((R)-2-fluoro-4-morpholin-2-yl-phenyl)-urea hydrochloride]	0.0019	0.001
O=C(Nc1ccc([C@H]2CNCCO2)cc1F)c1cnn(-c2cccc(OC(F)F)c2)c1 [Example 75, (S)-1-(3-(Difluoromethoxy)phenyl)-N-(2-fluoro-4-(morpholin-2-yl)phenyl)-1H-pyrazole-4-carboxamide]	0.0014	0.0011
O=C(Nc1ccc([C@H]2CNCCO2)cc1F)c1cnn(-c2ccc(OC(F)F)cc2)c1 [Example 76, (S)-1-(4-(Difluoromethoxy)phenyl)-N-(2-fluoro-4-(morpholin-2-yl)phenyl)-1H-pyrazole-4-carboxamide]	0.0016	0.0018
O=C(NCc1cccc(OC(F)F)c1)Nc1ccc([C@@H]2CNCCO2)cc1F [Example 77, (R)-1-(3-(Difluoromethoxy)benzyl)-3-(2-fluoro-4-(morpholin-2-yl)phenyl)urea]	0.001	0.0064
O=C(NCc1cccc(OC(F)F)c1)Nc1ccc([C@H]2CNCCO2)cc1F [Example 78, (S)-1-(3-(Difluoromethoxy)benzyl)-3-(2-fluoro-4-(morpholin-2-yl)phenyl)urea]	0.0012	0.0039
N#Cc1ccnc(C(=O)Nc2ccc([C@H]3CNCCO3)cc2F)c1 [Example 79, (S)-4-Cyano-N-(2-fluoro-4-(morpholin-2-yl)phenyl)picolinamide hydrochloride]	0.0022	0.196
O=C(Nc1ccc([C@H]2CNCCO2)cc1F)c1cnn(-c2ccc3c(c2)OC(F)(F)O3)c1 [Example 82, (S)-1-(2,2-Difluorobenzo[d][1,3]dioxol-5-yl)-N-(2-fluoro-4-(morpholin-2-yl)phenyl)-1H-pyrazole-4-carboxamide]	0.0013	0.0016
O=C(Nc1ccc([C@@H]2CNCCO2)c(F)c1)c1ccnc(C(F)(F)F)c1 [Example 83, (R)—N-(3-Fluoro-4-(morpholin-2-yl)phenyl)-2-(trifluoromethyl)isonicotinamide hydrochloride]	0.006	0.0075
CCOc1cc(C(=O)Nc2ccc([C@@H]3CNCCO3)c(F)c2)ccn1 [Example 84, (R)-2-Ethoxy-N-(3-fluoro-4-(morpholin-2-yl)phenyl)isonicotinamide hydrochloride]	0.0036	0.0047
CCOc1ccc(C(=O)Nc2ccc([C@@H]3CNCCO3)c(F)c2)cn1 [Example 85, (R)-6-Ethoxy-N-(3-fluoro-4-(morpholin-2-yl)phenyl)nicotinamide hydrochloride]	0.0033	0.0067
O=C(Nc1ccc([C@@H]2CNCCO2)c(F)c1)c1cnn(-c2ccc(OC(F)F)cc2)c1 [Example 86, (R)-1-(4-(Difluoromethoxy)phenyl)-N-(3-fluoro-4-(morpholin-2-yl)phenyl)-1H-pyrazole-4-carboxamide hydrochloride]	0.0023	0.0007
O=C(Nc1ccc([C@H]2CNCCO2)c(F)c1)c1ccnc(C(F)(F)F)c1 [Example 87, (S)—N-(3-Fluoro-4-(morpholin-2-yl)phenyl)-2-(trifluoromethyl)isonicotinamide hydrochloride]	0.0105	0.0202
CCOc1cc(C(=O)Nc2ccc([C@H]3CNCCO3)c(F)c2)ccn1 [Example 88, (S)-2-Ethoxy-N-(3-fluoro-4-(morpholin-2-yl)phenyl)isonicotinamide hydrochloride]	0.0034	0.0458
CCOc1ccc(C(=O)Nc2ccc([C@H]3CNCCO3)c(F)c2)cn1 [Example 89, (S)-6-Ethoxy-N-(3-fluoro-4-(morpholin-2-yl)phenyl)nicotinamide hydrochloride]	0.0024	0.0254
CCOc1cc(C(=O)Nc2ccc([C@@H]3CNCCO3)c(Cl)c2)ccn1 [Example 91, (R)—N-(3-Chloro-4-(morpholin-2-yl)phenyl)-2-ethoxyisonicotinamide hydrochloride]	0.0053	0.003
CCOc1ccc(C(=O)Nc2ccc([C@@H]3CNCCO3)c(Cl)c2)cn1 [Example 92, (R)—N-(3-Chloro-4-(morpholin-2-yl)phenyl)-6-ethoxynicotinamide hydrochloride]	0.0048	0.0045
O=C(Nc1ccc([C@@H]2CNCCO2)c(Cl)c1)c1cnn(-c2ccc(OC(F)F)cc2)c1 [Example 93, (R)—N-(3-Chloro-4-(morpholin-2-yl)phenyl)-1-(4-(difluoromethoxy)phenyl)-1H-pyrazole-4-carboxamide hydrochloride]	0.0005	0.0012
